Results on 40 compounds are retold here after US20230321086A1, “METHODS AND MATERIALS FOR INHIBITING NICOTINAMIDE PHOSPHORIBOSYLTRANSFERASE ACTIVITY” (Universiy of Pittsburgh - Of the Commonwealth System of …, priority 2020, published 2023).

This assay concerns A431 cells. Put plainly: Assay for total NADH and NAD+ measurements in cells. The format is cell-based. To be noted: percent of NAD level of untreated control cells (100 = no change). Also noted: C: change in NAD levels in response to test compound, shown as % of NAD activity in the absence of test compound: concentration or dose not given beside the values. Here is the method:
2,000 cells/well and, at the same time, test compounds dissolved in media at the desired concentration were added to each well. The treated cells were incubated overnight in C02 incubator. The cells were washed 6 times with PBS with 1 mM CaCl2) and 1 mM MgCl2. In the last wash, 10 μL of PBS with 1 mM CaCl2) and 1 mM MgCl2 per well were left in each well. Immediately thereafter, 10 μL 0.4% dodecyltrimethylammonium bromide (DTAB) in phosphate buffer pH 8.0 as added, and the plates were shaked at 1000 rpm for 5 minutes. 60 μL reaction mix was added, and fluorescence at Ex/Em 530/585 was immediately monitored. A linear increase should be achieved with 8 cycles every 92 seconds, 10 number of flashes/well/cycle. The reaction mix was prepared per the following table, respecting the amount and order in which each component was added:
All assays were performed in A431 cells. Referring to the tables below, activity: “+” ≥25 μM, “++” ≥1 μM and <25 μM, and “+++”<1 μM.
In each table header, A: NAMPT enzyme inhibitory activity, IC50 (μM); B: Cellular NAD inhibitory activity, IC50 (μM); and C: change in NAD levels in response to test compound, shown as % of NAD activity in the absence of test compound. […] A percentage of 100 percent would indicate no increase or decrease in NAD levels as compared to that measured for untreated control cells, while a percentage of 50 percent would indicate a decrease in NAD levels of 50 percent as compared to that measured for untreated control cells.
Take `C[C@H](Cl)C(=O)Nc1ccc2nc(-c3ccc(F)cc3)c(-c3ccc(F)cc3)nc2c1` [BC19315]: the “C: change in NAD levels in response to test compound, shown as % of NAD activity in the absence of test compound” value was 89%.
Regarding `Fc1ccc(-c2nc3ccc(-c4ccncc4)cc3nc2-c2ccc(F)cc2)cc1` [BC19245], the “C: change in NAD levels in response to test compound, shown as % of NAD activity in the absence of test compound” value was 67%.
Consider `Fc1ccc(-c2nc3ccc(-c4nncn4CCN4CCOCC4)cc3nc2-c2ccc(F)cc2)cc1` [BC19306], for which the “C: change in NAD levels in response to test compound, shown as % of NAD activity in the absence of test compound” value turned out to be 76%.
Regarding `Fc1ccc(-c2nc3cccnc3nc2-c2ccc(F)cc2)cc1` [BC19403], the “C: change in NAD levels in response to test compound, shown as % of NAD activity in the absence of test compound” value was found to be 68%.
With `Cc1nnc(-c2ccc3nc(-c4ccc(F)cc4)c(-c4ccc(F)cc4)nc3c2)o1` [BC19141], the “C: change in NAD levels in response to test compound, shown as % of NAD activity in the absence of test compound” value worked out at 62%.
On to `CN1CCN(C(=O)c2ccc3nc(-c4ccc(F)cc4F)c(-c4ccccc4)nc3c2)CC1` [BC19405], for which the “C: change in NAD levels in response to test compound, shown as % of NAD activity in the absence of test compound” value was 69%.
Regarding `CN(C)CCCNC(=O)Nc1ccc2nc(-c3ccc(F)cc3)c(-c3ccc(F)cc3)nc2c1` [BC19573], the “C: change in NAD levels in response to test compound, shown as % of NAD activity in the absence of test compound” value worked out at 11%.
Consider `CN1CCN(C(=O)c2ccc3nc(-c4ccc(F)cc4)c(-c4ccc(Cl)cc4Cl)nc3c2)CC1` [BC19398], for which the “C: change in NAD levels in response to test compound, shown as % of NAD activity in the absence of test compound” value is reported as 94%.
For the compound `CN1CCN(C(=O)c2ccc3nc(-c4ccc(F)cc4)c(-c4ccc(OC(F)(F)F)cc4)nc3c2)CC1` [BC19399], the “C: change in NAD levels in response to test compound, shown as % of NAD activity in the absence of test compound” value turned out to be 92%.
Then `C#CC(=O)Nc1ccc2nc(-c3ccc(F)cc3)c(-c3ccc(F)cc3)nc2c1` [BC19397], with 65%; and `CN1CCN(C(=O)C2CCc3nc(-c4ccc(F)cc4)c(-c4ccc(F)cc4)nc3C2)CC1` (stereo not shown) [BC19663], with 18%; and `CN1CCN(C(=O)c2ccc3nc(C(F)(F)F)c(-c4cccc(F)c4)nc3c2)CC1` [BC19142], with 94%.
With `COCCNC(=O)Nc1ccc2nc(-c3ccc(F)cc3)c(-c3ccc(F)cc3)nc2c1` [BC19565], the “C: change in NAD levels in response to test compound, shown as % of NAD activity in the absence of test compound” value came to 65%.
With `COCCNS(=O)(=O)c1ccc2nc(-c3ccc(F)cc3)c(-c3ccc(F)cc3)nc2c1` [BC19507], the “C: change in NAD levels in response to test compound, shown as % of NAD activity in the absence of test compound” value came to 53%.
As to `COCCCNS(=O)(=O)c1ccc2nc(-c3ccc(F)cc3)c(-c3ccc(F)cc3)nc2c1` [BC19554], the “C: change in NAD levels in response to test compound, shown as % of NAD activity in the absence of test compound” value turned out to be 52%.
The result for `Cn1nnnc1-c1ccc2nc(-c3ccc(F)cc3)c(-c3ccc(F)cc3)nc2c1` [BC19139] reads 29%; that for `CC(C)OC(=O)Nc1ccc2nc(-c3ccc(F)cc3)c(-c3ccc(F)cc3)nc2c1` [BC19195], 90%.
With `C=CC(=O)Nc1ccc2nc(-c3ccc(F)cc3)c(-c3ccc(F)cc3)nc2c1` [BC19313], the “C: change in NAD levels in response to test compound, shown as % of NAD activity in the absence of test compound” value was 91%.
The result for `Cn1cc(-c2ccc3nc(-c4ccc(F)cc4)c(-c4ccc(F)cc4)nc3c2)nn1` [BC19148] reads 80%; that for `Cn1nnnc1-c1ccc2nc(-c3ccc(F)cc3)c(C(F)(F)F)nc2c1` [BC19152], 93%.
As to `CS(=O)(=O)c1cncc(-c2ccc3nc(-c4ccc(F)cc4)c(-c4ccc(F)cc4)nc3c2)c1` [BC19243], the “C: change in NAD levels in response to test compound, shown as % of NAD activity in the absence of test compound” value came to 64%.
Then `OCCn1cc(-c2ccc3nc(-c4ccc(F)cc4)c(-c4ccc(F)cc4)nc3c2)nn1` [BC19396], with 60%; and `Fc1ccc(-c2nc3ccc(-c4cn(CCN5CCOCC5)nn4)cc3nc2-c2ccc(F)cc2)cc1` [BC19240], with 27%; and `O=C(NCCCN1CCCC1=O)Nc1ccc2nc(-c3ccc(F)cc3)c(-c3ccc(F)cc3)nc2c1` [BC19617], with 58%.
Then `O=S(=O)(NCc1cccnc1)c1ccc2nc(-c3ccc(F)cc3)c(-c3ccc(F)cc3)nc2c1` [BC19557], with 63%; and `O=C(NCCCO)Nc1ccc2nc(-c3ccc(F)cc3)c(-c3ccc(F)cc3)nc2c1` [BC19575], with 78%; and `CC#CC(=O)Nc1ccc2nc(-c3ccc(F)cc3)c(-c3ccc(F)cc3)nc2c1` [BC19314], with 33%.
With `CNC(=O)N1CCC(C(=O)Nc2ccc3nc(-c4ccc(F)cc4)c(-c4ccc(F)cc4)nc3c2)CC1` [BC19311], the “C: change in NAD levels in response to test compound, shown as % of NAD activity in the absence of test compound” value was found to be 63%.
With `O=S(=O)(NCc1ccccn1)c1ccc2nc(-c3ccc(F)cc3)c(-c3ccc(F)cc3)nc2c1` [BC19559], the “C: change in NAD levels in response to test compound, shown as % of NAD activity in the absence of test compound” value was 42%.
In the case of `CCNS(=O)(=O)c1ccc2nc(-c3ccc(F)cc3)c(-c3ccc(F)cc3)nc2c1` [BC19556], the “C: change in NAD levels in response to test compound, shown as % of NAD activity in the absence of test compound” value was 44%.
With `CN1CCN(C(=O)c2cccc3nc(-c4ccc(F)cc4)c(-c4ccc(F)cc4)nc23)CC1` [BC19400], the “C: change in NAD levels in response to test compound, shown as % of NAD activity in the absence of test compound” value amounted to 76%.
In the case of `CN1CCN(C(=O)c2cnc3nc(-c4ccc(F)cc4)c(-c4ccc(F)cc4)nc3c2)CC1` [BC19408], the “C: change in NAD levels in response to test compound, shown as % of NAD activity in the absence of test compound” value is reported as 95%.
For the compound `O=C(c1ccc2nc(-c3ccc(F)cc3)c(-c3ccc(F)cc3)nc2c1)N1CCN(CCO)CC1` [BC19513], the “C: change in NAD levels in response to test compound, shown as % of NAD activity in the absence of test compound” value is 49%.
Then `N=C(NO)c1ccc2nc(-c3ccc(F)cc3)c(-c3ccc(F)cc3)nc2c1` [BC19194], with 45%; and `CN1CCN(c2ccc3nc(-c4ccc(F)cc4)c(-c4ccc(F)cc4)nc3c2)CC1` [BC19510], with 41%.
In the case of `O=C(Nc1ccc2nc(-c3ccc(F)cc3)c(-c3ccc(F)cc3)nc2c1)C1CCNCC1` [BC19251], the “C: change in NAD levels in response to test compound, shown as % of NAD activity in the absence of test compound” value worked out at 0%.
Take `C/N=C(\c1ccc2nc(-c3ccc(F)cc3)c(-c3ccc(F)cc3)nc2c1)N1CCN(C)CC1` [BC19668]: the “C: change in NAD levels in response to test compound, shown as % of NAD activity in the absence of test compound” value amounted to 31%.
On to `OCCCn1c(-c2ccc3nc(-c4ccc(F)cc4)c(-c4ccc(F)cc4)nc3c2)n[nH]c1=S` [BC19664], for which the “C: change in NAD levels in response to test compound, shown as % of NAD activity in the absence of test compound” value was 70%.
On to `O=S(=O)(NCC1CC1)c1ccc2nc(-c3ccc(F)cc3)c(-c3ccc(F)cc3)nc2c1` [BC19506], for which the “C: change in NAD levels in response to test compound, shown as % of NAD activity in the absence of test compound” value was 66%.
`O=C1CCCN1CCCNS(=O)(=O)c1ccc2nc(-c3ccc(F)cc3)c(-c3ccc(F)cc3)nc2c1` [BC19560]: the “C: change in NAD levels in response to test compound, shown as % of NAD activity in the absence of test compound” value was 51%.
